Measured values: article PMC5847527, “Identification of a novel 2-oxindole fluorinated derivative as in vivo antitumor agent for prostate cancer acting via AMPK activation” (Scientific Reports, 2018)
Where “and” joins values, the source holds several entries; their conditions need not be identical. Equal entries are not always repeated.

Key:
[1] = molecular target: T1, AMPK (Homo sapiens, UniProt Q13131); experiment: AMPK and ACC phosphorylation by Western blot in PC-3 cells; format: cell-based; conditions: 25 µM, 1 hour; for Thr172 phosphorylation of AMPK (pAMPK/AMPK): compared to controls
T1 construct: endogenous in cells; host or cells: PC-3, DU145, LNCaP
T1 sequence (Q13131 whole entry): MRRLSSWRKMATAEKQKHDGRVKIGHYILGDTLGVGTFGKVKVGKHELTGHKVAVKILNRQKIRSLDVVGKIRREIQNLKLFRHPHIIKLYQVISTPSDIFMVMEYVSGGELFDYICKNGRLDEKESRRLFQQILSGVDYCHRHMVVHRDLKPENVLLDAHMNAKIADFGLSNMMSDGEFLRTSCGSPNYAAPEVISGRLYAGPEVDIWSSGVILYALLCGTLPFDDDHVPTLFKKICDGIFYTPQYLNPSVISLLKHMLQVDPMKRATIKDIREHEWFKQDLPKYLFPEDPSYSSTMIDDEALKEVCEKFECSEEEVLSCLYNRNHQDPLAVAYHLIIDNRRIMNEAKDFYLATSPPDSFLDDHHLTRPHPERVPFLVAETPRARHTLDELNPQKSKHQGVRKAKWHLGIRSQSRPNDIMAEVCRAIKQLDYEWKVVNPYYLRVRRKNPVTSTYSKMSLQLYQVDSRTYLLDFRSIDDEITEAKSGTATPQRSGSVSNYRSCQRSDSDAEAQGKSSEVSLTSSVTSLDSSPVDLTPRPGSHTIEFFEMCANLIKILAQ
T1 sequence (Q9Y478 2-270 partner limits assumed): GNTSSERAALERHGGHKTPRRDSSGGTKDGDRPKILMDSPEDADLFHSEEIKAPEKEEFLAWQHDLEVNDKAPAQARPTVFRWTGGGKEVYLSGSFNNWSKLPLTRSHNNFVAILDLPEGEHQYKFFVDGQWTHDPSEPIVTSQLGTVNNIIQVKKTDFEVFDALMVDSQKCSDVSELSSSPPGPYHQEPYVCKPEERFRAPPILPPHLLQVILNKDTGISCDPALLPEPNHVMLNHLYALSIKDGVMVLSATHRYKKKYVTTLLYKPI
T1 sequence (P54619 whole entry partner): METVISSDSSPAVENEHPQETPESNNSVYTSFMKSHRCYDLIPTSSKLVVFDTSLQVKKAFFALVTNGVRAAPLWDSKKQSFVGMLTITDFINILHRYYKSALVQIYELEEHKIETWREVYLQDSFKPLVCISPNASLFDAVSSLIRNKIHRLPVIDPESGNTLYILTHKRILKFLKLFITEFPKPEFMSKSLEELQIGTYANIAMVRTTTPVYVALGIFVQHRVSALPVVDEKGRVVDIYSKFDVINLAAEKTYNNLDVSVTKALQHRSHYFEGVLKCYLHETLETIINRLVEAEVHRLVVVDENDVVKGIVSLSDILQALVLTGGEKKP
Description: To investigate the effect of the compounds on AMPK activity at cellular level, compounds 8a-c and 9a-b were selected to perform AMPK phosphorylation assays in human prostate cancer cell lines. We use the PC-3 cell line as it is androgen-resistant and represents the advanced and aggressive stage of prostate cancer. […] AMPK inhibits lipogenic pathway through phosphorylation of its well-known substrate acetyl-CoA carboxylase (ACC). To confirm the modulation of AMPK activity in prostate cells by the compounds, we determined levels of phosphorylated ACC in 2-oxindole fluorinated derivatives-treated cells. […] It is worthy to note that the highest ACC phosphorylation was obtained with compound 8c denoting a powerful activity of this compound in PC-3 cells.
(§1) Figure 2 Effect of 2-oxindole fluorinated derivatives on AMPK activity in prostate cancer cells. (A) PC-3, DU145 and LNCaP cells were treated with 25 µM of the selected 2-oxindole fluorinated derivatives for 1 hour. Levels of the phosphorylated AMPK (pAMPK), phosphorylated ACC (pACC) and their total forms were determined by Western blot. Upper panel, a representative Western blot of three different experiments. β-tubulin (β-Tub) serves as a loading control. […] Lower panels, densitometric analyses of bands represented as the mean of the ratio pAMPK/AMPK or pACC/ACC ± SD of three different experiments. *p < 0.05 compared with the controls by one-way ANOVA followed by Fisher’s LSD test; ^#p < 0.05 compared with 2-oxindole fluorinated derivates or with the AMPK activators AMP or A769662 by one-way ANOVA followed by Tukey test.
(§2) Human prostate cancer epithelial PC-3, DU145 and LNCaP and human prostate normal RWPE-1 cells were purchased from American Type Culture Collection (ATCC CRL-1435 CRL-1740 and CRL 11609 respectively) (Rockville, MD, USA). The human prostate normal PNT2 cell line was purchased to ECACC (European Collection of Cell cultures, Salisbury, SP4 0JG, UK). Cells were routinely grown in RPMI 1640 medium supplemented with 100 IU/ml penicillin G sodium, 100 µg/ml streptomycin sulfate, 0.25 µg/ml amphotericin B (Invitrogen, Paisley, UK) and 10% fetal calf serum. Cells were used at passages between 10–20. For treatment experiments, cells were plated and grown over night, the medium was then replaced with serum-free RPMI 1640 for 24 hours and then incubated with different doses of the compounds for the indicated times.
Cells were lysed in Lysis buffer (50 mM Tris pH 7.4, 0.8 M NaCl, 5 mM MgCl2, 0.1% Triton X-100) containing Protease Inhibitor and Phosphatase inhibitor Cocktails (Roche, Basel, Switzerland). Protein concentrations were measured by BioRad™ protein assay kit (Richmond, CA, USA). Equal amount of protein (20 μg) from each sample was separated on 8% SDS–PAGE gels and transferred to PVDF membranes (BioRad). The membranes were blocked with blocking buffer (1× TBS, 0.1% Tween 20 with 5% w/v fat-free dry milk), washed and incubated with primary antibodies at 4 °C for 12 h. The membranes were subsequently washed with TBS-T (1× TBS and 0.1% Tween 20) and incubated with horseradish peroxidase-conjugated anti-mouse or anti-rabbit IgG antibodies (Sigma, St Louis, MO, USA) at room temperature for 1 h. The immune complex was visualized with an ECL system (Cell Signaling Technology). Films were analyzed by densitometry. The anti-pAMPKα1-thr172, pACC-ser79, pP53, P21, pRaptor and the antibodies against the corresponding total forms were obtained from Cell Signaling Technology (Danvers, MA, USA). The anti-caspase 3 and anti-procaspase 3 were from Santa Cruz Biotechnology (Dallas, Texas, USA). The anti-HIF1A was from Novus Biologicals LLC (Littleton, CO, USA). The anti-Cyclin D1 antibody was obtained from ThermoFisher (Alcobendas, Madrid, Spain). All the other chemicals were obtained from Sigma (St. Louis, MO, USA).

[2] = test system: RWPE-1 cells; experiment: Cell viability by MTT assay, RWPE-1 normal prostate cells; format: cell-based, human; conditions: RWPE-1, 50 μM
Procedure: (§3) Figure 3 Comparison of the effect of 2-oxindole fluorinated derivatives on the proliferation of human prostate cancer cells. (A) Normal (PTN2 and RWPE-1) and cancer (PC3,DU145 and LNCaP) prostate cells were treated with different doses of the compounds for 24 hours and cell viability was monitored by MTT assay. […] (C) PC-3, DU145 and LNCaP cells were treated with 25 µM of compound 8c for different times. Values were normalized with the control and represent the mean ± SD of at least three independent experiments. *p < 0.05 and **p < 0.01 compared to control by the Student’s - test.
as §2
(§4) Cell viability was determined by 3-(4,5-dimethylthiazol-2-yl)-2,5-diphenyltetrazolium bromide (MTT) (Sigma-Aldrich) method. […] The optical density in each well was evaluated by measurement of absorbance at 490 and 650 nm using a microplate reader (ELX 800 Bio-Tek Intruments, INC). IC50 values were calculated using GraphPad Prism vs 6.0 (GraphPad Software, Inc, La Jolla, CA, USA). Cell viability was also determined by counting viable and dead cells by Trypan blue staining. Trypan blue positive and negative cells were counted using a Countess^TM automated cell counter (Invitrogen, Carlsbad, CA, USA). Results were expressed in relation to total number of cells counted.

[3] = test system: PC-3 cells; experiment: Cell viability by MTT assay, PC-3; format: cell-based, human; conditions: PC-3, 50 μM
Procedure: as §3, §2
(§5) Cell viability was determined by 3-(4,5-dimethylthiazol-2-yl)-2,5-diphenyltetrazolium bromide (MTT) (Sigma-Aldrich) method. In brief, a total of 5000 cells/well were seeded into 12-well plate in a final volume of 1 mL. After treatments, 20 µl MTT solution (5 mg/ml in PBS) was added to the medium and cells were incubated at 37 °C for 4 h. Then, the supernatant was discarded and isopropanol was added to dissolve the formazan crystals. Treatments were carried out in triplicate. The optical density in each well was evaluated by measurement of absorbance at 490 and 650 nm using a microplate reader (ELX 800 Bio-Tek Intruments, INC). IC50 values were calculated using GraphPad Prism vs 6.0 (GraphPad Software, Inc, La Jolla, CA, USA). Cell viability was also determined by counting viable and dead cells by Trypan blue staining. Trypan blue positive and negative cells were counted using a Countess^TM automated cell counter (Invitrogen, Carlsbad, CA, USA). Results were expressed in relation to total number of cells counted.

[4] = test system: PNT2 cells; experiment: Cell viability by MTT assay, PNT2 normal prostate cells; format: cell-based, human; conditions: PNT2, 50 μM
Procedure: as §3, §2, §4

[5] = test system: LNCaP cells; experiment: Cell viability by MTT assay, LNCaP; format: cell-based, human; conditions: 50 μM
Procedure: as §3, §2, §4

[6] = test system: DU145 cells; experiment: Cell viability by MTT assay, DU145; format: cell-based, human; conditions: DU145, 50 μM
Procedure: as §3, §2, §5

[7] = test system: PTN2, RWPE-1, PC3, DU145 and LNCaP prostate cells; experiment: Cell viability by MTT assay, statements for the five cell lines together; format: cell-based, human; conditions: 1–100 µM, dose-dependent, 24 hours
Procedure: We then study the effect of the compounds on the proliferative capacity of PC-3, DU145 and LNCaP prostate cells. We also used the prostate cell lines PTN2 and RWPE-1 which are derived from a histologically normal adult and therefore are considered as normal prostate cells, for comparison. All the compounds were tested at concentrations ranging from 1 to 100 μM.
(A) Normal (PTN2 and RWPE-1) and cancer (PC3,DU145 and LNCaP) prostate cells were treated with different doses of the compounds for 24 hours and cell viability was monitored by MTT assay. […] Values were normalized with the control and represent the mean ± SD of at least three independent experiments. *p < 0.05 and **p < 0.01 compared to control by the Student’s - test.
Human prostate cancer epithelial PC-3, DU145 and LNCaP and human prostate normal RWPE-1 cells were purchased from American Type Culture Collection (ATCC CRL-1435 CRL-1740 and CRL 11609 respectively) (Rockville, MD, USA). The human prostate normal PNT2 cell line was purchased to ECACC (European Collection of Cell cultures, Salisbury, SP4 0JG, UK). Cells were routinely grown in RPMI 1640 medium supplemented with 100 IU/ml penicillin G sodium, 100 µg/ml streptomycin sulfate, 0.25 µg/ml amphotericin B (Invitrogen, Paisley, UK) and 10% fetal calf serum. Cells were used at passages between 10–20. […]

[8] = test system: AMPK; experiment: AMPK and ACC phosphorylation by Western blot in LNCaP cells; format: cell-based, human; conditions: 25 µM, 1 hour
Procedure: as §1
Similar results were obtained although AMPK stimulation by compound 8c was not so strong (Fig. 2A). […]
Cells were lysed in Lysis buffer (50 mM Tris pH 7.4, 0.8 M NaCl, 5 mM MgCl2, 0.1% Triton X-100) containing Protease Inhibitor and Phosphatase inhibitor Cocktails (Roche, Basel, Switzerland). Protein concentrations were measured by BioRad™ protein assay kit (Richmond, CA, USA). […] Films were analyzed by densitometry. […]

[9] = test system: AMPK; experiment: Characterization of AMPK activation by Western blot in PC-3 and LNCaP cells (Dorsomorphin, siRNA); format: cell-based, human; conditions: PC-3 and LNCaP cells, 5 μM Dorsomorphin + 25 µM 8c, 1 h and 24 h
Procedure: To further confirm the compound 8c-induced activation of AMPK, PC-3 and LNCaP cells were incubated with the compound for 1 h and 24 hours in the presence of the AMPK inhibitor Dorsomorphin. […] Accordingly, ACC phosphorylation was increased at 1 h and 24 h and prevented by Dorsomorphin in both cell lines. AMPK inhibits mTORC1 through phosphorylation of Raptor on two well-conserved serine residues (ser722 and ser792) inducing cell-cycle arrest in response to an energy stress. To further support the 8c-induced AMPK activation, we determined Raptor phosphorylation on Ser792 in prostate cells.
Figure 5 AMPK activation by compound 8c in prostate cancer cells. (A) PC-3 and LNCaP cells were treated with vehicle, 25 µM compound 8c, 25 µM compound 8c + 5 μM Dorsomorphin (8c + D) or 5 μM Dorsomorphin (D), for 1 hour or 24 hours and levels of the phosphorylated AMPK (pAMPK), phosphorylated ACC (pACC), phosphorylated Raptor (pRaptor) forms and HIF1α were determined by Western blot. Upper panel, representative Western blot of three different experiments. β-tubulin (β-Tub) serves as a loading control. Lower panel, densitometric analyses of bands represented as the mean of the ratio pAMPK/AMPK or pACC/ACC. (B) Cell viability monitored by MTT assay in PC-3 and LNCaP cells treated with vehicle, 25 µM and 50 μM compound 8c alone or in the presence of 5 μM Dorsomorphin or transfected with control siRNA (siC) or α1AMPK-selective siRNA (siAMPK). (C) LNCaP cells were treated with vehicle, 25 µM compound 8c, 25 µM compound 8c + 5 μM Dorsomorphin (8c + D) or 5 μM Dorsomorphin (D), for 24 hours and levels of Androgen Receptor (AR), Prostate specific antigen (PSA) and Prostate specific membrane antigen (PSMA) were determined by Western blot.Values were normalized with the control and represent the mean ± SD of at least three independent experiments. *p < 0.05 and **p < 0.01 compared to control and ^#p < 0.05 and ^##p < 0.01 compared with 8c-treated group by the Student’s t-test.
AMPK is a heterotrimeric protein composed by catalytic (α) and regulatory (β and γ) subunits. In mammals, different isoforms of α, β and γ subunits can associate to produce up to 12 AMPK different combinations. […]
Figure 6 Phosphorylation of AMPK and ACC in prostate cells transfected with selective AMPKα1 or AMPKα2 siRNA. […] Levels of the phosphorylated AMPK (pAMPK), phosphorylated ACC (pACC) and their total forms were determined by Western blot. […]
Cells were lysed in Lysis buffer (50 mM Tris pH 7.4, 0.8 M NaCl, 5 mM MgCl2, 0.1% Triton X-100) containing Protease Inhibitor and Phosphatase inhibitor Cocktails (Roche, Basel, Switzerland). Protein concentrations were measured by BioRad™ protein assay kit (Richmond, CA, USA). […]

## O=C1Nc2ccccc2C1(F)Cc1ccc[nH]1 (stereo not shown) [Compound 8a, 3-((1H-pyrrol-2-yl)methyl)-3-fluoroindolin-2-one]
other
  melting point: 143 to 146 °C
[1]
  ACC phosphorylation (pACC/ACC): inhibited ACC phosphorylation
  Thr172 phosphorylation of AMPK (pAMPK/AMPK): slightly, although significantly, inhibited AMPK phosphorylation

## O=C1Nc2ccc(Cl)cc2C1(F)Cc1ccc(N2CCCC2)cc1 (stereo not shown) [Compound 8b, 5-chloro-3-fluoro-3-(4-(pyrrolidin-1-yl)benzyl)indolin-2-one]
[2]
  inhibitory efficacy on cells viability at 50 μM: 17%
[3]
  inhibitory efficacy on cells viability at 50 μM: 3%
[4]
  inhibitory efficacy on cells viability at 50 μM: 0%
[1]
  ACC phosphorylation (pACC/ACC): inhibited ACC phosphorylation
  Thr172 phosphorylation of AMPK (pAMPK/AMPK): slightly, although significantly, inhibited AMPK phosphorylation
[5]
  inhibitory efficacy on cells viability at 50 μM: 11%
[6]
  inhibitory efficacy on cells viability at 50 μM: 14%

## O=C1N(Cc2ccccc2)c2ccccc2C1(F)Cc1ccc[nH]1 (stereo not shown) [Compound 9a, 3-((1H-pyrrol-2-yl)methyl)-1-benzyl-3-fluoroindolin-2-one]
[1]
  ACC phosphorylation (pACC/ACC): inhibited ACC phosphorylation
  Thr172 phosphorylation of AMPK (pAMPK/AMPK): slightly, although significantly, inhibited AMPK phosphorylation
[7]
  inhibition of cell proliferation: effectively inhibited cell proliferation

## O=C1N(Cc2ccccc2)c2ccc(Cl)cc2C1(F)Cc1ccc(N2CCCC2)cc1 (stereo not shown) [Compound 9b, 1-benzyl-5-chloro-3-fluoro-3-(4-(pyrrolidin-1-yl)benzyl)indolin-2-one]
[3]
  inhibitory efficacy on cells viability at 50 μM: 27% and 23%
[1]
  ACC phosphorylation (pACC/ACC): augmented pACC
  Thr172 phosphorylation of AMPK (pAMPK/AMPK): weak AMPK activation
[8]
  AMPK phosphorylation (pAMPK/AMPK): slightly increases AMPK phosphorylation in PC-3 cells but not in LNCaP cells
[6]
  inhibitory efficacy on cells viability at 50 μM: 14% and 17%

## c1cc(-c2cnn3cc(-c4ccc(OCCN5CCCCC5)cc4)cnc23)ccn1 [Dorsomorphin, reference compound]
[9]
  effect on AMPK activation by compound 8c: blocked AMPK activation by compound 8c both at 1 h and 24 h
